Assay results taken from ChEMBL document CHEMBL1201862, “PubChem BioAssay data set” (2004).
Calls of active or inactive are those of the source.

How the values were obtained:
[1] = test system: HEK293; assay: inhibition of NOD1-driven NF-kB reporter – cell-based, luminescence, uHTS, primary screen (AID 1578); type: functional; details: Homo sapiens
[2] = test system: BJ; assay: BJ-TERT fibroblast viability loss – cell-based, RAS-independent, luminescence, dose response (AID 1933); type: functional; details: Homo sapiens
[3] = test system: HEK293; assay: cells; type: functional, cell-based; details: Homo sapiens
[4] = test system: BJ; assay: cells; type: functional, cell-based; details: Homo sapiens
[5] = test system: HEK293; assay: cells; type: functional, cell-based; details: Homo sapiens; remark: listed apart in the source
[6] = test system: HEK293; assay: NOD2 signaling inhibitors in MDP-stimulated cells, cell-based, uHTS, luminescence (AID 2001); type: functional; details: Homo sapiens
[7] = test system: BJ; assay: BJ-TERT-LT-ST fibroblast viability loss – cell-based, RAS-independent, luminescence, dose response (AID 1935); type: functional; details: Homo sapiens;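 also: BJ fibroblasts immortalized with TERT plus LT and ST oncogenes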
[8] = DRD fibroblast viability loss – cell-based, non-viral oncogenic, luminescence, dose response (AID 1934); type: functional; details: Homo sapiens
[9] = HEK-293T viability loss after treatment – luminescence, T-cell screen hits, cytotoxicity control for TCR NF-kB inhibitor project, dose response (AID 489026); type: functional, cell-based;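 also: cells exposed to compound about 14 hours before the viability readout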
[10] = test system: BJ; assay: growth inhibition of engineered Ras-driven BJ cells – cell-based, alamar blue fluorescence, cherrypicked samples, dose response (AID 2631); type: functional; details: Homo sapiens;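 also: confirmatory dose-response assay in RAS-dependent BJ fibroblasts engineered with TERT, LT and ST, with cytotoxicity read by fluorescence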
[11] = biological target: Paired box protein Pax-8 (Homo sapiens, UniProt Q06710); assay: PAX8 transcriptional activity inhibition in RMG-I – RMG-I cells, luciferase, cherry-pick, dose response (AID 687027); type: functional, cell-based;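 also: luciferase reporter driven by Pax8 target thyroperoxidase promoter measured by SteadyGlo luminescence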
[12] = general cell-killing toxicity readout – plate reader, dry powder samples, cytotoxicity control for PAX8 inhibitor project, dose response (AID 743021); type: functional, cell-based
[13] = biological target: T1, RNA-binding protein pos-1 (Caenorhabditis elegans, UniProt G5EF15); assay: disruptors of C. elegans POS-1 RNA interaction – biochemical, fluorescence polarization, dose response (AID 1964);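 also: purified POS-1 fused to maltose binding protein made in E. coli; potency of compounds blocking POS-1 binding to fluorescent RNA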
T1 sequence (G5EF15 whole entry): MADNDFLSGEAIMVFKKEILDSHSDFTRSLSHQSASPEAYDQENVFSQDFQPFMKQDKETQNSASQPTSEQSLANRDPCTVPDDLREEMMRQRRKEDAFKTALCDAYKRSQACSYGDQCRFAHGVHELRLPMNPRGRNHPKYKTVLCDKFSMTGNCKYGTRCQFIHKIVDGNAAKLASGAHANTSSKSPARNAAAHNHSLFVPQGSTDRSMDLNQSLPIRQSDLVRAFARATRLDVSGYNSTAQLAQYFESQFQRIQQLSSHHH

[14] = biological target: T2, Zinc finger protein mex-5 (Caenorhabditis elegans, UniProt Q9XUB2); assay: potency of MEX-5 RNA-binding blockers – biochemical, C. elegans, fluorescence polarization, dose response (AID 1960)
T2 sequence (Q9XUB2 whole entry): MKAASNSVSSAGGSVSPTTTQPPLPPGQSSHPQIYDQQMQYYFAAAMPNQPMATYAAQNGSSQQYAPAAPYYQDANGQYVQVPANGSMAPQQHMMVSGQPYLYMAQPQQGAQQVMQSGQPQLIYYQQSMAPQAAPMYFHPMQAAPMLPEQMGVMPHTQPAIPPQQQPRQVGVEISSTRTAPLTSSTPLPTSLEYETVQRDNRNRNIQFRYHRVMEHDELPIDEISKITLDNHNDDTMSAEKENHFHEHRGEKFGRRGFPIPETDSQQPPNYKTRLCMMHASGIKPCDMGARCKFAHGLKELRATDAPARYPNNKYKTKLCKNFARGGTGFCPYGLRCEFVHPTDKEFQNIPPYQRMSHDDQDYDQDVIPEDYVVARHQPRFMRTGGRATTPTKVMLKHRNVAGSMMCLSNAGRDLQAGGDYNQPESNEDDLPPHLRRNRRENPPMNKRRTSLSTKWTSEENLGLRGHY

[15] = biological target: Genome polyprotein (dengue virus type 2, UniProt P29990); assay: flavivirus cap methylation enzyme inhibition – biochemical, confirmation dose response, primary screen (AID 588689); type: functional
[16] = biological target: Albumin (Bos taurus, UniProt P02769); assay: Counterscreen for inhibitors of T-cell receptor (TCR)-CD3 interaction: Fluorescence-based biochemical high throughput dose response assay to identify inhibitors of T-cell receptor (TCR)-CD3 interaction using a TAMRA-labeled BSA probe.; type: functional
[17] = biological target: Mitogen-activated protein kinase 10 (Homo sapiens, UniProt P53779); assay: Dose response biochemical screening assay for inhibitors of c-Jun N-Terminal Kinase 3 (JNK3). [Related pubchem assays: 746 ]
[18] = reduction of Shn3 3'UTR-driven luciferase in osteoblasts – cell-based, Clone20 osteoblasts, firefly luciferase, cherry-picked, dose response (AID 624132); type: functional;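 also: firefly luciferase luminescence from reporter carrying the Shn3 3'UTR in osteoblasts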
[19] = loss of viability in HepG2 cells – cell-based, CellTiter-Glo, cherry-picked, cytotoxicity control for Shn3 inhibitor project, dose response (AID 624134); type: functional
[20] = non-specific 3'UTR reporter inhibition in Clone20-Shn3RL – cell-based, Renilla luciferase, cherry-picked, counter-screen for Shn3 inhibitor project, dose response (AID 624133); type: functional
[21] = biological target: T3, COUP transcription factor 2 (Homo sapiens, UniProt P24468); assay: Luminescence-based cell-based high throughput dose response assay to identify inhibitors of COUP-TFII (NR2F2).; type: functional;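 also: HEK293 cells transiently cotransfected with COUP-TFII expression vector and reporter; luciferase reporter luminescence driven by COUP-TFII from the pX2-168 reporter plasmid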
T3 sequence (P24468 whole entry): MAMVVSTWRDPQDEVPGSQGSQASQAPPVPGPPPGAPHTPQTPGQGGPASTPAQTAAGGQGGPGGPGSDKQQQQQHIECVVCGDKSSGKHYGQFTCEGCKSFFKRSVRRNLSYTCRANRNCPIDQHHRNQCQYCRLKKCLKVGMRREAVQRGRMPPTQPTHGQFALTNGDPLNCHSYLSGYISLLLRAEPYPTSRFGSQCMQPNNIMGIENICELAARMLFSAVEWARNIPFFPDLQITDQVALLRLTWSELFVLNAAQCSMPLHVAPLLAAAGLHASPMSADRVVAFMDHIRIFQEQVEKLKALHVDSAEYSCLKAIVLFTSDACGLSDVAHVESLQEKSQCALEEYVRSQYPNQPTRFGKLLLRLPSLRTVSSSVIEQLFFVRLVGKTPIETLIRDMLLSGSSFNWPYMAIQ

[22] = A549 cell cytotoxicity, dose response, cytotoxicity control, plate reader, cherry-pick, antagonist series (AID 743412); type: functional, cell-based
[23] = toxicity toward HepG2 liver cells – cell-based, plate reader, cherry-pick, antagonist series, cytotoxicity control, dose response (AID 743416); type: functional
[24] = blockers of bursicon-stimulated LGR2 cAMP reporter – cell-based, HEK293, CRE-luciferase reporter, cherry pick, set 2, dose response (AID 743343); type: functional;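 also: transfected cells were stimulated with diluted bursicon conditioned medium after compound addition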
[25] = blockade of melanocortin 4 receptor signaling – cell-based, plate reader, cherry pick, counter-screen for LGR2 antagonist project, dose response (AID 743444); type: functional;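 also: transfected HEK 293 cells stimulated with alpha-MSH peptide; potency of inhibitors of the alpha-MSH evoked signal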
[26] = biological target: NAD-dependent protein deacylase sirtuin-5, mitochondrial (Homo sapiens, UniProt Q9NXA8); assay: sirtuin-5 deacylation blockers, concentration series – biochemical, fluorescence imaging, cherry-pick, set 5, dose response (AID 720591);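 also: desuccinylation of succinyl peptide AMC substrate read as fluorescence after trypsin release; potency of inhibitors that lower fluorescence and may act on trypsin instead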
[27] = test system: INS1; assay: INS-1E survival protection against cytokine death – cell-based, luminescence, retest, dose response (AID 449756); type: functional; details: Rattus norvegicus;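 also: cell death triggered by IL-1 beta plus TNF-alpha plus IFN-gamma mixture; protective hits raise ATP signal compared with cytokine alone wells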
[28] = biological target: Disintegrin and metalloproteinase domain-containing protein 17 (Homo sapiens, UniProt P78536); assay: exosite inhibitors of ADAM17, dose response, biochemical (AID 743260)
[29] = inhibition of ADAM10 peptide cleavage – biochemical, FRET peptide substrate, recombinant human ADAM10, selectivity assay for ADAM17 exosite inhibitor project, dose response (AID 743259);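 also: ADAM10 enzyme cleaving a FRET peptide substrate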
[30] = biological target: Peroxisome proliferator-activated receptor gamma/Nuclear receptor coactivator 1 (Homo sapiens, UniProt P37231); assay: (§1) TR-FRET dose response biochemical High Throughput Screening assay for agonists of the steroid receptor coactivator 1 (SRC-1) recruitment by the peroxisome proliferator-activated receptor gamma (PPAR gamma): non-selective agonists. [Related pubchem assays (depositor defined):AID1300, AID1808, AID504735, AID631]; type: protein assay
[31] = biological target: Peroxisome proliferator-activated receptor gamma/Nuclear receptor coactivator 3 (Homo sapiens, UniProt P37231); assay: as §1, with “3 (SRC-3)” for “1 (SRC-1)”, “assays: 1301 (Confirmation screen.), 1048 (Primary screen.)]” for “assays (depositor defined):AID1300, AID1808, AID504735, AID631]”; type: functional
[32] = biological target: Peroxisome proliferator-activated receptor gamma/Nuclear receptor coactivator 2 (Homo sapiens, UniProt P37231); assay: TR-FRET dose response biochemical High Throughput Screening assay for agonists of the steroid receptor coactivator 2 (SRC-2) recruitment by the peroxisome proliferator-activated receptor gamma (PPAR gamma): non-selective agonists. [Related pubchem assays: 1297, 1032 ]; type: functional
Chain of Peroxisome proliferator-activated receptor gamma/Nuclear receptor coactivator 2 (P37231 whole entry): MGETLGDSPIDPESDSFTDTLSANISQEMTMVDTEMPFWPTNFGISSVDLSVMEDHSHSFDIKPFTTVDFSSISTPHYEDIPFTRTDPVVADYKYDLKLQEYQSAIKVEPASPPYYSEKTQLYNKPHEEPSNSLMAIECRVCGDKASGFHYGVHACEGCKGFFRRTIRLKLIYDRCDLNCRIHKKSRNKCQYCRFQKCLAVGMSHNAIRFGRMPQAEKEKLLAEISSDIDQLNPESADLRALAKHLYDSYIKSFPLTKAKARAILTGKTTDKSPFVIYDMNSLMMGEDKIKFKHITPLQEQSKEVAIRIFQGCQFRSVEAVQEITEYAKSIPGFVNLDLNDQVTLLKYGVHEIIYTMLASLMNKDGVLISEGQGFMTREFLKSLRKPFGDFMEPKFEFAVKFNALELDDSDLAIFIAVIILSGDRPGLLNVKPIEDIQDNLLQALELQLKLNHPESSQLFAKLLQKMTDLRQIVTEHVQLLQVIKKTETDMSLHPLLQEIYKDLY
Chain of Peroxisome proliferator-activated receptor gamma/Nuclear receptor coactivator 2 (Q15596 whole entry, further chain): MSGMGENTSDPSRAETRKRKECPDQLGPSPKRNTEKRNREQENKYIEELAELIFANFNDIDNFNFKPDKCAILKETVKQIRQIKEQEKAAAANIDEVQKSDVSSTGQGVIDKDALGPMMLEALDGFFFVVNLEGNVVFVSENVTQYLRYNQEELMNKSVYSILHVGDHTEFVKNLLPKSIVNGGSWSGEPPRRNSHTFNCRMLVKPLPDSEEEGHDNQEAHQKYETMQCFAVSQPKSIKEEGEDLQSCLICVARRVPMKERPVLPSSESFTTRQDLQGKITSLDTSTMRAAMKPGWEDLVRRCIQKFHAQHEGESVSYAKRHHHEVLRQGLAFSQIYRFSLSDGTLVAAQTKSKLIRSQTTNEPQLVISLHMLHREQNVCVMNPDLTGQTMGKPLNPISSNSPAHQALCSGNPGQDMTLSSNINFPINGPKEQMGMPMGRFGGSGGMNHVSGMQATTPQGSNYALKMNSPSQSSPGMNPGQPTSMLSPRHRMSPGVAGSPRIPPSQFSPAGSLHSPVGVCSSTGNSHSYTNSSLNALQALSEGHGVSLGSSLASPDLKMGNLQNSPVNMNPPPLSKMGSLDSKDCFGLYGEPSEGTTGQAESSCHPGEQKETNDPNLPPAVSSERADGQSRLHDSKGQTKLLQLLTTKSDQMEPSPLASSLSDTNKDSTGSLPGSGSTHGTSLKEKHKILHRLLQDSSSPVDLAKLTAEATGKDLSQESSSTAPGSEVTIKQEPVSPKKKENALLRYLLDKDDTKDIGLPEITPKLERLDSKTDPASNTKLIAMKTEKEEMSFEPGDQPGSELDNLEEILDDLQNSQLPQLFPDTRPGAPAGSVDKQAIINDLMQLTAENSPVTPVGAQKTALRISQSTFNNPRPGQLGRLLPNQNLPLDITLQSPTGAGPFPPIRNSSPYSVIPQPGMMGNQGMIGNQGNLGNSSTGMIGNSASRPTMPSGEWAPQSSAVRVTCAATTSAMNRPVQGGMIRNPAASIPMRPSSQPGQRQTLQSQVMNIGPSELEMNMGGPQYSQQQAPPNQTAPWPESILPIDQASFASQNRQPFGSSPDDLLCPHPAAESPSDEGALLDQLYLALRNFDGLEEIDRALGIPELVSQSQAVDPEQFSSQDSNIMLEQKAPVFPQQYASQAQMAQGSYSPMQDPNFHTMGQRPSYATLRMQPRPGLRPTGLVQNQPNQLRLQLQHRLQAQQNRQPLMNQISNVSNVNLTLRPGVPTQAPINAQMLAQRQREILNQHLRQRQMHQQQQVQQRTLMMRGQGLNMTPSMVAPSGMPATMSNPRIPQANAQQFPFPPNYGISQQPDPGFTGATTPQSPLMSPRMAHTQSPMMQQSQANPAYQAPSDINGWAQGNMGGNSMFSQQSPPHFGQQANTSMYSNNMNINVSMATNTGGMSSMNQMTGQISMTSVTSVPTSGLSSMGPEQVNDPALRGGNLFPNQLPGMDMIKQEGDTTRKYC

Chain of Disintegrin and metalloproteinase domain-containing protein 17 (P78536 whole entry, the tested form may be a part): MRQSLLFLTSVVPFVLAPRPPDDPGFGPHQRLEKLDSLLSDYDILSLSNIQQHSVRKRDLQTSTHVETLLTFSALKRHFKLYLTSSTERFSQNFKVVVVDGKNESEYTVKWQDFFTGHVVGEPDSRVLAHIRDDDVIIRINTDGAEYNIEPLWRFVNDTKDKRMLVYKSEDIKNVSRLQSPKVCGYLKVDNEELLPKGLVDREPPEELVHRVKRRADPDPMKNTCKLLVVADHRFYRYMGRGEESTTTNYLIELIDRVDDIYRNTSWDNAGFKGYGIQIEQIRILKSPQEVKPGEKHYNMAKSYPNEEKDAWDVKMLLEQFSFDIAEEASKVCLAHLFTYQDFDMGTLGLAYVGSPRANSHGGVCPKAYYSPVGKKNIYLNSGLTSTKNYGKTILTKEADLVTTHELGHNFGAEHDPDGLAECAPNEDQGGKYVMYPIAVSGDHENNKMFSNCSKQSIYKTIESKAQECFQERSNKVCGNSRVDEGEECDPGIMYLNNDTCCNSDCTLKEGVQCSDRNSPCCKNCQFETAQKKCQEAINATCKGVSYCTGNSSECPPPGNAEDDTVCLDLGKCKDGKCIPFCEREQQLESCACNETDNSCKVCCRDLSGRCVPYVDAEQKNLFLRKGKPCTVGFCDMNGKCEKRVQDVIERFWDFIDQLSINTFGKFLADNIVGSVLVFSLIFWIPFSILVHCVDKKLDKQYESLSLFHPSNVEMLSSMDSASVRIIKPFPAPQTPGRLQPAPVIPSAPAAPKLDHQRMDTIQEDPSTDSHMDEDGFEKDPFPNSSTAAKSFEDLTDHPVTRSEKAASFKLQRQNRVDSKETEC
Chain of Mitogen-activated protein kinase 10 (P53779 whole entry): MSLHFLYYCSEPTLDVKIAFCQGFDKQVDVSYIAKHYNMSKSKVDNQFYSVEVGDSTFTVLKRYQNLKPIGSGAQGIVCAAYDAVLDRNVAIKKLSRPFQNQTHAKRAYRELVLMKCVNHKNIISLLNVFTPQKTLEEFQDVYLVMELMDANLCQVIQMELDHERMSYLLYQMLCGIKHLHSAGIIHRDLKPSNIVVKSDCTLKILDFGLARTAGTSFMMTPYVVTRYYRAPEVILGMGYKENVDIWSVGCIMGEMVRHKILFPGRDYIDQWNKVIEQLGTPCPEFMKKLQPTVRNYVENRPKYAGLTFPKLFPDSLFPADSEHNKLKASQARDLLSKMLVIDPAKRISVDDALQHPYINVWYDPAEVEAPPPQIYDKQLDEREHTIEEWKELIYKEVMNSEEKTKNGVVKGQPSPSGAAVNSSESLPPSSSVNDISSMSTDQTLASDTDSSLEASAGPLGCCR
Chain of NAD-dependent protein deacylase sirtuin-5, mitochondrial (Q9NXA8 whole entry): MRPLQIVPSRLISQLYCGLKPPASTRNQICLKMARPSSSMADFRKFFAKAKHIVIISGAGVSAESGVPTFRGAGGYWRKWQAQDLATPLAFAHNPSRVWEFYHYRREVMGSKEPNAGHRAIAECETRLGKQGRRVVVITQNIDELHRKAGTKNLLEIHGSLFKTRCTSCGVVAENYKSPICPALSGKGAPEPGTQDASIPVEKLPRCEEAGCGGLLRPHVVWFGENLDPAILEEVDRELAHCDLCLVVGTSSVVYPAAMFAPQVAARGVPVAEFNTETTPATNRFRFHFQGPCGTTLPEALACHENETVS
Chain of Albumin (P02769 whole entry): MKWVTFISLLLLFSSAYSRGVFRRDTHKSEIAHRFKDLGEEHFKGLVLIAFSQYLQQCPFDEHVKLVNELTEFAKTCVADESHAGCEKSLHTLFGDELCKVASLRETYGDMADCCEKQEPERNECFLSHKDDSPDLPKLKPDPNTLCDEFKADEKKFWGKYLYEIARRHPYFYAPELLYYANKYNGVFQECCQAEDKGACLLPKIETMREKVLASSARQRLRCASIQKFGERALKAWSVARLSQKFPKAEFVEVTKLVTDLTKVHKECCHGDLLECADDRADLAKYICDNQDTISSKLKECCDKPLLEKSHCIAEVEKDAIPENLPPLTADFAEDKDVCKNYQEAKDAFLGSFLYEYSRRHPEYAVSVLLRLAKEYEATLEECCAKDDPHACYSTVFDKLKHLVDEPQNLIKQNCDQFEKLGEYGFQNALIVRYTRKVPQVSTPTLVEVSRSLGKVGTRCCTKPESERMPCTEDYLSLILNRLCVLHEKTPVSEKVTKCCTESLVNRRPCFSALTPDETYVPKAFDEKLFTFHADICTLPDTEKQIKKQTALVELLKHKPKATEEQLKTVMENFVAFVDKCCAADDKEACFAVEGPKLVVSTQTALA
Chain of Paired box protein Pax-8 (Q06710 whole entry): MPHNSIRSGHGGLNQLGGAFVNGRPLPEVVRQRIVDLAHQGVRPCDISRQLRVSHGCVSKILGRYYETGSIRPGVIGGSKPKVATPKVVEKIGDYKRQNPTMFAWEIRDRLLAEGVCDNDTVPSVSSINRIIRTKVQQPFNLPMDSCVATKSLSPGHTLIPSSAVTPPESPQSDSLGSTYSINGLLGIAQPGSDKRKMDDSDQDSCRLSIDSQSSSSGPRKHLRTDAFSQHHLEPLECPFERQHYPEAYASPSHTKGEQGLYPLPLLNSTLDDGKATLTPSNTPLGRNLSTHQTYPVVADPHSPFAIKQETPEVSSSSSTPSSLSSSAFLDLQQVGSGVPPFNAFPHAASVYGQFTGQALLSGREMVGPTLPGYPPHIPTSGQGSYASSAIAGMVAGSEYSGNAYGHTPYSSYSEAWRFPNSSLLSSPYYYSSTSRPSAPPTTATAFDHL

For `COc1ccc(C(C(=O)NC2CCCCC2)N(C(=O)CCl)c2ccc(C)cc2)cc1` (centres undefined), the EC50 [1] was 15.6 µM (active), the EC50 [2] was 0.84 µM (inconclusive) and the IC50 [3] was 5.75 µM (active). The EC50 [4] was 2.63 µM (active), the IC50 [5] was 17.5 µM (active) and the IC50 [6] was 7.21 µM (active). The EC50 [7] was 6.27 µM (active), the EC50 [8] was 0.748 µM (active) and the IC50 [9] was > 80 µM (inactive). The EC50 [10] was 9.18 µM (active), the AC50 [11] was 0.533 µM (active) and the AC50 [12] was 0.827 µM (active).

In the case of `CCC(=O)Nc1ccc2nc3c(O)nc(S)nc3nc2c1`, the EC50 [13] is reported as 20.9 µM (active), the EC50 [14] is reported as 12.3 µM (active) and the IC50 [15] is reported as 39.4 µM (active). The IC50 [16] was > 94.1 µM (inactive).

With `CCCc1cc(O)n2c(n1)nc1ccccc12` the IC50 [17] was 35 µM (not active).

With `COc1cccc(CN(C)C(=O)c2ccc(OCC(=O)Nc3cccc(C(F)(F)F)c3)c(OC)c2)c1` the IC50 [9] was > 80 µM (inactive), the AC50 [18] was 4.93 µM (active) and the AC50 [19] was 3.38 µM (active). For the same molecule, the AC50 [20] was 14.4 µM (active) and the IC50 [21] was 4.57 µM (active).

With `O=C(Nc1ccc2c(c1)OCCO2)c1ccc(Cl)cc1Cl` the AC50 [22] was > 52 µM (inactive), the AC50 [23] was > 52 µM (inactive) and the AC50 [24] was 11.6 µM (active). For the same molecule, the AC50 [25] was 15.2 µM (active).

With `CN(C)C(=O)c1cc(C(=O)c2ccc(C(F)(F)F)cc2F)c[nH]1` the AC50 [26] was > 30 µM (inactive).

In the case of `Cc1cccc(C2(c3cccc(C)c3)OC(=O)c3ccccc32)c1`, the AC50 [27] is reported as 17.7 µM (active), the IC50 [28] is reported as > 69.5 µM (inactive) and the IC50 [29] is reported as > 23.2 µM (inactive).

For `Cc1ccc(S(=O)(=O)N2CCCCC2)cc1NC(=O)CNc1ccc(C(F)(F)F)cc1`, the IC50 [28] was > 69.5 µM (inactive) and the IC50 [29] was 8.89 µM (active).

With `Cc1cn(S(=O)(=O)c2ccc(Br)c3ccccc23)cn1` the EC50 [30] was > 79.4 µM (inactive), the EC50 [31] was > 79.4 µM (not active) and the EC50 [32] was > 79.4 µM (not active). For the same molecule, the IC50 [17] was 15.5 µM (not active).

In the case of `CCN1C(=O)/C(=C/c2ccc(C)s2)NC1=S`, the IC50 [28] is reported as > 69.5 µM (inactive) and the IC50 [29] is reported as > 69.5 µM (inactive).

In the case of `Cc1cc(S(=O)(=O)Nc2ccc(C(=O)NCC3(N4CCCCC4)CCCCC3)cc2)ccc1F`, the AC50 [26] is reported as > 30 µM (inactive).
